Source: the supplement of paper PMC10307832

Legend:
Assay in all cases: relative viability (nuclei count vs DMSO), 5 days (fraction); higher = more cells survive
AZ505 + Phenformin = compound: C1CCC(CC1)N(CCNCCC2=C3C(=C(C=C2)O)NC(=O)CO3)C(=O)CCNCCC4=CC(=C(C=C4)Cl)Cl [AZ505] + N=C(N)NC(=N)NCCc1ccccc1 [Phenformin] (partner 250 µM)
How it was run: (§1)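 Relative viability equals treated-well nuclei counts divided by vehicle-well nuclei counts. Counts came from 4× images of lung cancer cell lines grown in 1536-well plates for 5 days after pin-tool dosing on the day after seeding. Dosing used one drug alone or a fixed anchor-drug dose plus five library-drug doses (not always all listed) in √10 steps, and values are medians of duplicate plates.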

Dactolisib + Luminespib = compound: Cn1c(=O)n(-c2ccc(C(C)(C)C#N)cc2)c2c3cc(-c4cnc5ccccc5c4)ccc3ncc21 [Dactolisib] + CCNC(=O)c1noc(-c2cc(C(C)C)c(O)cc2O)c1-c1ccc(CN2CCOCC2)cc1 [Luminespib] (partner 0.01 µM)
How it was run: as §1

Dactolisib + Alpelisib = compound: Cn1c(=O)n(-c2ccc(C(C)(C)C#N)cc2)c2c3cc(-c4cnc5ccccc5c4)ccc3ncc21 [Dactolisib] + Cc1nc(NC(=O)N2CCC[C@H]2C(N)=O)sc1-c1ccnc(C(C)(C)C(F)(F)F)c1 [Alpelisib] (partner 2 µM)
How it was run: as §1

AZ505 + Navitoclax = compound: C1CCC(CC1)N(CCNCCC2=C3C(=C(C=C2)O)NC(=O)CO3)C(=O)CCNCCC4=CC(=C(C=C4)Cl)Cl [AZ505] + CC1(C)CCC(c2ccc(Cl)cc2)=C(CN2CCN(c3ccc(C(=O)NS(=O)(=O)c4ccc(N[C@H](CCN5CCOCC5)CSc5ccccc5)c(S(=O)(=O)C(F)(F)F)c4)cc3)CC2)C1 [Navitoclax] (partner 0.5 µM)
How it was run: as §1

Cell Line | relative viability (AZ505 + Phenformin; first compound 0.08 µM) | relative viability (AZ505 + Phenformin; first compound 0.253 µM) | relative viability (AZ505 + Phenformin; first compound 0.8 µM) | relative viability (AZ505 + Phenformin; first compound 2.53 µM) | relative viability (AZ505 + Phenformin; first compound 8 µM) | relative viability (Dactolisib + Luminespib; first compound 0.002 µM) | relative viability (Dactolisib + Luminespib; first compound 0.006325 µM) | relative viability (Dactolisib + Luminespib; first compound 0.02 µM) | relative viability (Dactolisib + Luminespib; first compound 0.06325 µM) | relative viability (Dactolisib + Luminespib; first compound 0.2 µM) | relative viability (Dactolisib + Alpelisib; first compound 0.002 µM) | relative viability (Dactolisib + Alpelisib; first compound 0.006325 µM) | relative viability (Dactolisib + Alpelisib; first compound 0.02 µM) | relative viability (Dactolisib + Alpelisib; first compound 0.06325 µM) | relative viability (Dactolisib + Alpelisib; first compound 0.2 µM) | relative viability (AZ505 + Navitoclax; first compound 0.08 µM) | relative viability (AZ505 + Navitoclax; first compound 0.253 µM) | relative viability (AZ505 + Navitoclax; first compound 0.8 µM) | relative viability (AZ505 + Navitoclax; first compound 2.53 µM) | relative viability (AZ505 + Navitoclax; first compound 8 µM)
NCI-H2405 | 0.278 | 0.214 | 0.31 | 0.218 | 0.263 | 0.665 | 0.689 | 0.755 | 0.393 | 0.272 | 0.683 | 0.647 | 0.646 | 0.359 | 0.273 | 0.449 | 0.483 | 0.621 | 0.524 | 0.696
NCI-H3122 | 0.369 | 0.353 | 0.37 | 0.357 | 0.414 | 0.134 | 0.0901 | 0.104 | 0.0762 | 0.085 | 0.792 | 0.729 | 0.652 | 0.486 | 0.36 | 1 | 1.02 | 1.03 | 1.02 | 1
PC-3 [JPC-3] | 0.423 | 0.446 | 0.433 | 0.484 | 0.422 | 0.759 | 0.639 | 0.683 | 0.472 | 0.48 | 1.15 | 1.02 | 0.977 | 0.78 | 0.641 | 0.76 | 0.817 | 0.768 | 0.84 | 0.802
PC-14 | 0.519 | 0.328 | 0.573 | 0.482 | 0.668 | 0.136 | 0.16 | 0.172 | 0.11 | 0.128 | 0.946 | 0.932 | 0.887 | 0.407 | 0.252 | 0.999 | 1.07 | 0.974 | 0.95 | 0.997
RERF-LC-KJ | 0.393 | 0.436 | 0.394 | 0.348 | 0.358 | 1.3 | 1.29 | 0.859 | 0.326 | 0.415 | 0.806 | 0.818 | 0.742 | 0.543 | 0.551 | 1.3 | 0.901 | 0.916 | 0.869 | 0.753
SK-LU-1 | 0.353 | 0.345 | 0.33 | 0.394 | 0.379 | 0.211 | 0.18 | 0.214 | 0.159 | 0.132 | 1.03 | 0.94 | 0.779 | 0.363 | 0.276 | 0.716 | 0.406 | 0.451 | 0.482 | 0.351
SK-MES-1 | 0.485 | 0.618 | 0.643 | 0.67 | 0.601 | 0.828 | 0.744 | 0.349 | 0.286 | 0.171 | 1.06 | 0.842 | 0.833 | 0.474 | 0.406 | 1.13 | 1.19 | 1.29 | 1.14 | 1.31
SW 1573 | 0.36 | 0.402 | 0.333 | 0.341 | 0.373 | 0.234 | 0.214 | 0.214 | 0.168 | 0.0994 | 0.94 | 0.784 | 0.682 | 0.322 | 0.33 | 0.893 | 1.03 | 1.05 | 1.09 | 0.91
